Test results as given in patent US20200206370A1, “18F-LABELED BISPH[…] PET IMAGING” (University of Southern California, priority 2016, published 2020).

Assay: MicroPET imaging and organ uptake quantification after tail vein injection in normal nude mice
Assay type: in vivo, mouse
Description: All animal studies were approved by the University of Southern California Institutional Animal Care and Use Committee. Female athymic nude mice (about 4-6 weeks old, with a body weight of 20-25 g) were obtained from Harlan Laboratories (Livermore, Calif.). MicroPET scans were performed using an Inveon microPET scanner (Siemens Medical Solutions, Malvern, Pa., USA). A normal nude mouse was anesthetized using 2% isoflurane and injected with 1.3-2.5 MBq of [^18F]-ClFMBP via tail vein. At 0.5, 1, and 2 h post injection, static emission scans were acquired for 10 min. Raw PET images were reconstructed using 2D ordered subset expectation maximization (OSEM) algorithms with scatter, random and attenuation correction.
The 2D projection of PET images at 2 h post-injection is shown.
Accumulation of [^18F]-ClFMBP in other mouse organs was minimal.

[1] = microPET quantification, 2 h post-injection, tail vein, normal nude mice

With O=P(O)(O)C([18F])(Cl)P(=O)(O)O [[^18F]-ClFMBP, (chloro[^18F]-fluoromethylene)bisphosphonic acid] the “visibility of joints and bones in microPET images” value (0.5, 1 and 2 h post-injection, normal nude mice) was “clearly visible with high contrast to contralateral background”, the “uptake of radioactivity in the bladder” value (microPET images, normal nude mice) was “Predominant uptake” and the “accumulation in other mouse organs” value (microPET quantification, 2 h post-injection) was “minimal”. For the same compound, the uptake in bones [1] was 2.72±0.05 % ID/g, the uptake in joints [1] was 2.37±0.08 % ID/g and the “uptake in mouse kidneys” value [1] was 0.16±0.08 % ID/g. The “uptake in mouse liver” value [1] was 0.21±0.04 % ID/g and the route of excretion (suggested by bladder uptake in microPET images) was “mainly through the renal system”.
